Consider one compound from paper PMC9873984, “Membrane cholesterol regulates inhibition and substrate transport by the glycine transporter, GlyT2” (Life Science Alliance, 2023).

One assay deals with T1, GlyT2 T512A mutant (Homo sapiens, UniProt Q9Y345, T512A).
T1 sequence (Q9Y345 1-797 T512A): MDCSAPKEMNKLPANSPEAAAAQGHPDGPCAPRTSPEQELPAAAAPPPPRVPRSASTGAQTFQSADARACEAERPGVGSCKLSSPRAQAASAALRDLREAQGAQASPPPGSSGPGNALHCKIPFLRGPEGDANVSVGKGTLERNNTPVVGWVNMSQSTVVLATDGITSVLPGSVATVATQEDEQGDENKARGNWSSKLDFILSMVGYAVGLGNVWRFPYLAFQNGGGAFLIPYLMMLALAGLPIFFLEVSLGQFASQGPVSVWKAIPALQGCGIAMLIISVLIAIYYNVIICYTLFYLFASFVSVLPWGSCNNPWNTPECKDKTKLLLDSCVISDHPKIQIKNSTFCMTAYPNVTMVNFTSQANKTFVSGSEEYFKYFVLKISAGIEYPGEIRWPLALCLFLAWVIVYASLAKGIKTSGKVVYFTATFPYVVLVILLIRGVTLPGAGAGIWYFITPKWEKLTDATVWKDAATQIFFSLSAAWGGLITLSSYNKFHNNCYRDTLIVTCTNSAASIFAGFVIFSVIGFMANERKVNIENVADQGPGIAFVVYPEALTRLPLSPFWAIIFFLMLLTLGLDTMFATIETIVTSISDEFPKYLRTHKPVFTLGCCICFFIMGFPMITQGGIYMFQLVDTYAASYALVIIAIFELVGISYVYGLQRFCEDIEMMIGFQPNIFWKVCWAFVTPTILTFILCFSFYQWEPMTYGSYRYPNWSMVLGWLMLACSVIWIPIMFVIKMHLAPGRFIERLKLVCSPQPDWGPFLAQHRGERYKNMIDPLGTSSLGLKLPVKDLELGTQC
From the text:
(§1) GlyT2a (referred to herein as GlyT2) was subcloned into the plasmid oocyte transcription vector (pOTV) for expression in Xenopus laevis oocytes. Oligonucleotide primers incorporating desired mutations were synthesized by Sigma-Aldrich and used to generate point mutations in the GlyT2 cDNA/pOTV construct using the Q5 site-directed mutagenesis kit (New England Biolabs [Genesearch]). Amplified PCR products were transformed into chemically competent E. coli cells and purified using the GeneJET Plasmid Miniprep Kit (Thermo Fisher Scientific). Purified plasmid DNA was sequence-verified by the Australian Genome Research Facility. pOTV constructs were linearized with the restriction enzyme SpeI (New England Biolabs [Genesearch]), and RNA was transcribed by T7 RNA polymerase using the mMESSAGE mMACHINE T7 kit (Thermo Fisher Scientific).
(§2) The transport activity of GlyT2 is an electrogenic process as it couples the transport of glycine to the co-transport of 3 Na^+ and 1 Cl^− and thus can be measured using two-electrode voltage-clamp electrophysiology. Oocytes expressing GlyTs were voltage-clamped at −60 mV, and glycine-induced whole-cell currents were measured using a GeneClamp 500 amplifier (Axon Instruments), and a PowerLab 2/26 chart recorder (ADInstruments) and LabChart Software (ADInstruments).
(§3) Functionality of WT and mutant GlyT2 transporters was assessed by applying increasing concentrations of glycine (1–3,000 µM) in ND96 until a stable current was achieved. Glycine concentrations were applied individually and completely removed from the system via washing with recording buffer before proceeding to the next concentration. EC50 values for each transporter were determined by fitting concentration–response data to the modified Michaelis–Menten equation: I=([Gly].Imax)/(EC50+[Gly]), where I is current in nA, [Gly] is the concentration of glycine, Imax is the current generated by a maximal concentration of glycine, and EC50 is the concentration of glycine that generates a half-maximal current.

The target of another assay is GlyT2 F515V mutant (Homo sapiens, UniProt Q9Y345, F515V). The note with it: read-out: Glycine EC50; F515V (TM7).
From the text: as §1, §2, §3

The next assay concerns the target GlyT2 L198A mutant (Homo sapiens, UniProt Q9Y345, L198A).
From the text: as §1, §2, §3

Another assay addresses T2, GlyT2 F515W mutant (Homo sapiens, UniProt Q9Y345, F515W).
T2 sequence (Q9Y345 1-797 F515W): T1 sequence (Q9Y345 1-797 T512A) with A512T, F515W
The conditions noted are these: read-out: Glycine EC50; F515W (TM7).
From the text: as §1, §2, §3

Positions count from the first letter of the chain named.

GlyT2 L198A mutant, sequence (Q9Y345 whole entry L198A): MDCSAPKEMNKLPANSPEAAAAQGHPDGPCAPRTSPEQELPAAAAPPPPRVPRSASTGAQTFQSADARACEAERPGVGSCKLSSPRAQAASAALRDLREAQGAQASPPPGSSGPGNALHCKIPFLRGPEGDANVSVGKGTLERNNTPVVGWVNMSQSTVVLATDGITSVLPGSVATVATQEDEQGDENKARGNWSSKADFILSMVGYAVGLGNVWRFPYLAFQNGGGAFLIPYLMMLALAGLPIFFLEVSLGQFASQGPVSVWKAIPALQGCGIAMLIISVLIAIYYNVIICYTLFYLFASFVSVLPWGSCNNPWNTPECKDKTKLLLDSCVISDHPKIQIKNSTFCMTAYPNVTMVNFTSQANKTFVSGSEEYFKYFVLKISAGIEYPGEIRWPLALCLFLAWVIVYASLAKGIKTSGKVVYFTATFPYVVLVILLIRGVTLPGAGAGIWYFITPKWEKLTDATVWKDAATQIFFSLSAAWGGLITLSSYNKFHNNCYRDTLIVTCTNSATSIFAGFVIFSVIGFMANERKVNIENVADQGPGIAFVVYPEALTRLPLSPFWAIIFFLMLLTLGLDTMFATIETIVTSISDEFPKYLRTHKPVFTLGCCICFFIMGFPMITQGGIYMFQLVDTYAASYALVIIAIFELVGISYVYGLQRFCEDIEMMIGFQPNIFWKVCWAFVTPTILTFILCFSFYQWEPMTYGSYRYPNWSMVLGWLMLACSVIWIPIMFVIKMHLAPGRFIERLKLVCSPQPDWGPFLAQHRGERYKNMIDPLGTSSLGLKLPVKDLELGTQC
GlyT2 F515V mutant, sequence (Q9Y345 whole entry F515V): as the sequence (Q9Y345 whole entry L198A) above, with A198L, F515V counted along it

With `NCC(=O)O` [Glycine, glycine], the “Reduction in apparent glycine affinity compared to WT” value at GlyT2 T512A mutant (T512A vs WT) came to 4.8 fold. Also, the EC50 at GlyT2 T512A mutant (read-out: Glycine EC50, T512A (TM7)) is 90 µM; at GlyT2 F515V mutant it was 7.8 µM; on GlyT2 L198A mutant (read-out: Glycine EC50, L198A (TM1)) it was 28 µM; on GlyT2 F515W mutant, 7.6 µM. Besides, the “Increase of glycine EC50 compared to WT” value at GlyT2 L198A mutant (L198A vs WT) is 1.5 fold.

By EC50 is commonly meant the concentration needed to bring the measured effect to its halfway point.
